Experimental data taken from patent US20130171163A1, “Inhibition of LAR Phosphatase to Enhance Therapeutic Angiogenesis” (priority 2010, published 2013).

Columns and labels:
IGF-1Rβ = molecular target: T1, IGF-1Rβ (Homo sapiens, UniProt P08069); experiment: IGF-1-induced IGF-1Rβ autophosphorylation in HUVECs (immunoprecipitation/Western); type: cell-based
T1 construct: endogenous in cells; host or cells: HUVEC (Cambrex)
Experimental: (§1) Human umbilical vein endothelial cells (HUVECs) were purchased from Cambrex (San Diego, Calif.) and were maintained in medium 199 (Mediatech, Inc, Herndon, Va.) containing 90 μg/ml heparin, 30 μg/ml endothelial cell growth supplements (BD Biosciences, Bedford, Mass.), 20% FBS, 50 μg/mL gentamicin, and 50 μg/mL amphotericin. Cultures were maintained at 37° C. in a humidified incubator (95% air, 5% CO2). HUVECs, grown to 80% confluence, were growth arrested by overnight incubation in medium 199 supplemented with 0.1% serum.
(§2) Preparation of cell lysates, immunoprecipitation and immunoblotting were performed as described (Reinmuth et al., Clin. Cancer Res. 8:3259 (2002)).
(§3) Adenoviral infection of nearly confluent HUVECs was performed with indicated multiplicity of infection in medium 199 containing 2% FBS. After 16 h incubation, the cells were quiesced overnight in medium 199 containing 0.1% FBS. Then HUVECs were treated with the indicated agonists in serum-free medium 199.
(§4) The LAR siRNA (sc-35793, containing three siRNAs (SEQ ID NOS:1-3)) and a scrambled, non-silencing siRNA (sc-36869) were obtained from Santa Cruz Biotechnology. […] HUVECs were treated with the indicated agonists in serum-free medium 199 and LAR expression was assessed by Western analysis.

[1] = tested on: aortic rings from wild-type and LAR−/− mice; experiment: Ex vivo angiogenesis assay (aortic ring sprouting); set-up: species or system mouse
Experimental: The angiogenesis assay was performed as described previously (Huang et al., J. Biol. Chem. 277:10760 (2002)) with some modifications. Thoracic aortas were excised from 8-12-week-old wild-type and LAR knockout male mice (DBA background) and immediately placed into cold medium 199 containing 10% FBS. Clotted blood inside the aortas was flushed with media, and the periadventitial fibroadipose tissue was removed. Aortas were then cut into cross-sectional rings of ˜1-1.5 mm in length. Rings were placed into 60-mm dishes containing 0.4 ml of cold growth factor-reduced Matrigel and then incubated at 37° C. until the Matrigel was polymerized. The aortic rings embedded in the Matrigel were overlaid with 0.5 ml of serum-free endothelial cell growth medium with or without the growth factors. The rings were maintained at 37° C. for up to 10 days with medium changes every 2 days. Vascular sprouting from the rings was examined daily under a Leica microscope (10× magnification), and digital images were obtained. Quantitative analysis of endothelial sprouting was performed using images from day 10, and sprout length was quantified using NIH Image J. The distance from the aortic ring body to the end of the vascular sprouts was measured at three distinct points per ring.

[2] = tested on: wild-type and LAR−/− mice; experiment: In vivo angiogenesis assay (Matrigel plug); set-up: species or system mouse; conditions: in the presence of PPP
From the text: The Matrigel plug assay was used to assess in vivo angiogenesis. […] Mice were sacrificed after 10 days and the plugs were carefully dissected from the mice. The plugs were weighed, analyzed histologically or for hemoglobin content using Drabkin hemoglobin assay kit (Sigma Chemical Co., St. Louis, Mo.). Hemoglobin levels in the Matrigel plugs correlate well with blood vessel growth (Volin et al., Am. J. Pathol. 159:1521 (2001)). The Matrigel plugs were homogenized on ice and centrifuged. Fifty μl of the supernatant were mixed with 950 μl Drabkin's reagent and the reaction was allowed to develop at room temperature for 30 min. Absorbance was read at 540 nm and hemoglobin concentration was determined by comparison to a standard curve generated using known concentrations of hemoglobin. For histological analysis, Matrigel plugs were formalin-fixed, paraffin-embedded, cut into 5 μm sections, and Massons trichrome-stained. In brief, sections were hydrated in distilled water, incubated in Bouin's fixative for 3 h to overnight, and then washed in running tap water until yellow color disappeared. […] Image J was used to quantify the number of vessel-like structures in each field. Total number of microvessels containing red blood cells and number of capillaries in a high power field (20× magnifications) were counted. […]

HUVECs = experiment: Matrigel morphogenesis assay (endothelial tube/cord formation); type: cell-based, human; conditions: 1 μM PPP
Experimental: Growth factor-reduced Matrigel was thawed at 4° C. on ice and 300 μl/well were added to a 24-well plate prechilled at −20° C. using a cold pipette. Matrigel was allowed to polymerize for 30 min at 37° C. HUVECs were either left uninfected or were infected with AdLAR or Adβ-gal. In a separate set of experiments, HUVECs were transfected with LAR siRNA or control siRNA as described above. […] In vitro tube formation was assessed after 5 h incubation. Cell cultures were observed under a phase contrast microscope and photographed in five different random fields (10× magnification). The mean tube length per field was quantified using NIH Image J.

Akt, eNOS and ERK1/2 = experiment: IGF-1-induced phosphorylation of Akt, eNOS and ERK1/2 in HUVECs (Western); type: cell-based, human; conditions: 100 ng/mL IGF-1, AdLAR at 2.5 MOI
Experimental: as §1, §2, §3, §4

T1 sequence (P08069 31-1367): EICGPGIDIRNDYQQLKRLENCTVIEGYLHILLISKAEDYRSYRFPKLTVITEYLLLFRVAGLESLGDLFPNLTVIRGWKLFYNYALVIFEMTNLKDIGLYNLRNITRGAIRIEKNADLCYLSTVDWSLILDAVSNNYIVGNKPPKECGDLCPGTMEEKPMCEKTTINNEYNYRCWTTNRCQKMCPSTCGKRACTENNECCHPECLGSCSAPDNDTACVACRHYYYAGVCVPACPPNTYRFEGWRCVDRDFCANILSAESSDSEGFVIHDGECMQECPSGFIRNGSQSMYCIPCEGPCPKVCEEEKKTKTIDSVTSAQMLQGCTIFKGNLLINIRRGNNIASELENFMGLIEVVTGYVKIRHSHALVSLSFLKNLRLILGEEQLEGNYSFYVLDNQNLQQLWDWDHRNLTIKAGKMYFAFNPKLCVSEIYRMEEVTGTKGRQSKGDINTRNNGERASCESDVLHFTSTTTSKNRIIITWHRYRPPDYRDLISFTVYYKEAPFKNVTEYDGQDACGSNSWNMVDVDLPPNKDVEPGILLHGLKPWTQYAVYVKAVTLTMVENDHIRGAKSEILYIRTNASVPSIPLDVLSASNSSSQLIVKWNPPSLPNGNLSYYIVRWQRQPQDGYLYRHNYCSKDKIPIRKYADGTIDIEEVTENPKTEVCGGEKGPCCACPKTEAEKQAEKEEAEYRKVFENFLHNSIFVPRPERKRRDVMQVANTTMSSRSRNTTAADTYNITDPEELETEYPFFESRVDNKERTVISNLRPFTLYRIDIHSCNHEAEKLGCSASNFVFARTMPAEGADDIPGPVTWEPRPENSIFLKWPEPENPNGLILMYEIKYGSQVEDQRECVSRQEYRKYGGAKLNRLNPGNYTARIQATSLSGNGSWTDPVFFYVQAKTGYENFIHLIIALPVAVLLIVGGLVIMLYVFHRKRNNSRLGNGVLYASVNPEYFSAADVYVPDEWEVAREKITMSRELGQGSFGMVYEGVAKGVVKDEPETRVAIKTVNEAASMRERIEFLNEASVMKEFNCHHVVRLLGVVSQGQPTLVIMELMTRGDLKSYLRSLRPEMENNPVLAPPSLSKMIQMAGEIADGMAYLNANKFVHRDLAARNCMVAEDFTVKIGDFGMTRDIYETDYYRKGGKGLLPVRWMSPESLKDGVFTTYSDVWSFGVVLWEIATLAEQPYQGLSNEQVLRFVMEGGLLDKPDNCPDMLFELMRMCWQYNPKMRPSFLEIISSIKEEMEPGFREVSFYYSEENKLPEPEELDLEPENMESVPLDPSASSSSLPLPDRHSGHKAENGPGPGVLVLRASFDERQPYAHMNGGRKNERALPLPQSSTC

| Molecule | IGF-1Rβ autophosphorylation in HUVECs treated with IGF-1 (IGF-1Rβ; 1 μM PPP) | IGF-1Rβ autophosphorylation in HUVECs treated with IGF-1, dose dependence (IGF-1Rβ; PPP pretreatment 1 h, 100 ng/mL IGF-1 10 min) | Mean length of sprouts from IGF-1 treated wild-type and LAR−/− aortic rings ([1]; 1 μM PPP, 10 days in Matrigel) | Number of microvessels in IGF-1 embedded Matrigel plugs ([2]; LAR−/− mice) | Hemoglobin content of IGF-1 embedded Matrigel plugs ([2]; 10 days, significant in LAR−/− mice (P=0.01)) | IGF-1-induced cord formation in scrambled siRNA and LAR siRNA transfected HUVECs (HUVECs) | IGF-1-induced phosphorylation of Akt, eNOS and ERK1/2 (Akt, eNOS and ERK1/2) | Mean length of newly sprouted vessels from aortic rings ([1]; wild-type and LAR−/− mice, IGF-1 treatment, day 10) |
| --- | --- | --- | --- | --- | --- | --- | --- | --- |
| COc1cc([C@@H]2c3cc4c(cc3[C@H](O)[C@H]3COC(=O)[C@@H]23)OCO4)cc(OC)c1OC [PPP, picropodophyllin] | significant inhibition | dose-dependent inhibition | significantly inhibited | significantly decreased | decreased in both wild-type and LAR^−/− mice | abrogated | – | – |
| IGF-1: Recombinant human IGF-1 purchased from R&D Systems | – | – | – | – | – | – | increased | significantly enhanced |
